Experiments:
RORα [1] = biological target: T1, RORα (Homo sapiens, UniProt P35398); assay: IL-17 promoter luciferase reporter with full-length RORα; assay type: cell-based
T1 sequence (P35398 1-523): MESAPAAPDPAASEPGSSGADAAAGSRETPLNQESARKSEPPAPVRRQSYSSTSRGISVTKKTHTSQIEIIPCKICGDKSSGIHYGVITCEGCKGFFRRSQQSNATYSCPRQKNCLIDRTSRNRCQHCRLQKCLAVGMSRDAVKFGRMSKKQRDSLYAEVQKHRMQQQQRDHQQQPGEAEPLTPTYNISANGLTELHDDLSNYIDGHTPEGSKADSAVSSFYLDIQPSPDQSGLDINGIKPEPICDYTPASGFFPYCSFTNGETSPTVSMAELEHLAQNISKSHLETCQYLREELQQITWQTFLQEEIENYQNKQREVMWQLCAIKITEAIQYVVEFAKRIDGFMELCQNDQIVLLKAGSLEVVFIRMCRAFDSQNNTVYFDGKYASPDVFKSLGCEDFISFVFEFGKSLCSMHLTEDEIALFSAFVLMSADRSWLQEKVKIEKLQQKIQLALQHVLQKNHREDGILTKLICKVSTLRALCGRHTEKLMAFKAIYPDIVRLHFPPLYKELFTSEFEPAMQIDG
Description: Since RORα and RORγ are critical regulators of IL-17 gene expression, we examined whether SR1555 would affect RORα and RORγ-dependent regulation of an IL-17 promoter driven luciferase reporter construct. HEK293 cells were transiently transfected with an IL-17 reporter, either full-length RORα or RORγ, and treated with an increasing concentration of SR1555[8]. In a dose dependent manner, SR1555 suppressed IL-17 promoter driven activity by RORγ but not RORα, further confirming that SR1555 is indeed a RORγ-specific inverse agonist (FIG. 1d). Finally, using EL4 cells, a murine thymoma which endogenously express RORα, RORγ t, and IL-17A, we examined whether SR1555 affected endogenous IL-17 gene expression. EL4 cells were treated with DMSO or SR1555 for 24 hours and analyzed for Il17a gene expression by quantitative real-time PCR.
Cotransfection assays were performed as previously described in HEK293 cells (Gal4 cotransfection assay or IL-17 luciferase reporter)[8]. […]
HEK293 cells were maintained in Dulbecco's modified Eagle's medium (DMEM) supplemented with 10% fetal bovine serum at 37° C. under 5% CO2. […] The luciferase levels were assayed following additional 20 hour incubation by one-step addition of BriteLite Plus (Perkin Elmer) and read using an Envision (Perkin Elmer). […]

T regulatory cells = assay: T regulatory cell differentiation of splenocytes (RTPCR, Foxp3 FACS); assay type: cell-based, murine; settings: 10 μM
Method: Therefore, the environmental cues associated with the concentration of TGF[…] dictates the balance between TH17 and T regulatory cell differentiation. In light of the reciprocal relationship between these two cell types, we assessed whether SR1555 affected the development of T regulatory cells in vitro. Splenocytes were cultured under T regulatory cell polarizing conditions (TGFβ and IL-2) for 3 days. […] To determine whether the gene expression data would correlate with protein expression, we again cultured splenocytes for 5 days under T regulatory cell polarizing conditions in the presence of DMSO or SR1555 and examined the expression of Foxp3 by intracellular cytokine FACS analysis.
Splenocytes were differentiated under the following conditions: iTreg-10 μg/mL anti-IFNγ, 10 μg/mL anti-IL-4, and 2 ng/mL TGFβ (R&D Systems); 20 ug/mL anti-IFNγ, 20 ug/mL anti-IL-4, 1 ng/mL TGFβ, and 10 ng/mL IL-6 (R&D Systems) for TH17 conditions. All cultures were stimulated with 1 μg/mL anti-CD3 (eBiosciences) and 1 μg/mL anti-CD28 (eBiosciences). Four to five days after activation, all cells were restimulated with 5 ng/mL phorbol-12-myristate-13-acetate (PMA) (Sigma) and 500 ng/mL ionomycin (Sigma) for 2 hours with the addition of GolgiStop (BD Bioscience) for an additional 2 hours before intracellular staining. Cells were cultured in RPMI 1640 medium (Invitrogen) with 10% FBS and antibiotics.
(§1) RNA extraction and QRT-PCR analysis was performed as previously described.

RORα [2] = biological target: T2, RORα (Homo sapiens, UniProt P35398); assay: Gal4-RORα LBD / UAS luciferase cotransfection assay; assay type: cell-based; settings: Gal4 chimeric cotransfection
T2 construct: expressed in transfected cells; host or cells: HEK293T
T2 sequence (P35398 272-510 limits assumed): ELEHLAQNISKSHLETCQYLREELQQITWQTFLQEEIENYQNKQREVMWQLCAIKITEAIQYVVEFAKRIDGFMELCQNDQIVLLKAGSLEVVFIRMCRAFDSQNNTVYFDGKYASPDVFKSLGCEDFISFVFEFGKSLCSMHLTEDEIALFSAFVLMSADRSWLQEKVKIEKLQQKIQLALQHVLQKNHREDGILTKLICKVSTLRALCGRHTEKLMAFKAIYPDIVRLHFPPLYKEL
Method: (§2) The cells were treated with either DMSO or various compounds as indicated four hours after replating. Following additional 20 hour incubation, luciferase levels were assayed by one-step addition of 20 μL BriteLite (Perkin Elmer) and read using an Envision multilabel plate reader (Perkin Elmer).

RORα [3] = biological target: T2, RORα; assay: Competitive radioligand binding assay on RORα; settings: data not shown
Description: Concurrent with our characterization of SR1001, several other groups identified RORγ-specific inverse agonists. Similar to SR1001, these ligands inhibited TH17 cell development and function. […] Compounds were identified using a screening approach similar to SR1001 and a RORγ-selective inverse agonist. SR1555, was identified (FIG. 1a). Compound SR1555 is shown as compound 3 in Table 1. […] Next we examined the direct binding of SR1555 to RORα and RORγ in competitive radioligand binding assays.

LXR = biological target: T3, LXR (Homo sapiens, UniProt Q13133); assay: Gal4-LXRα / UAS luciferase cotransfection assay; assay type: cell-based; settings: Gal4 chimeric cotransfection
T3 sequence (Q13133 209-447 limits assumed): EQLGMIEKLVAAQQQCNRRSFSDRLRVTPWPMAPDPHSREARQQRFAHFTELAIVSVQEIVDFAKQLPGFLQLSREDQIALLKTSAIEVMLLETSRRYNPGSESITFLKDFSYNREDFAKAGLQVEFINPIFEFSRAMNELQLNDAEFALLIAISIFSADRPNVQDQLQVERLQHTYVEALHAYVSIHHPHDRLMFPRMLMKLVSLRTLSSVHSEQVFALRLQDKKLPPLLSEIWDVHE
Method: as §2

FXR = biological target: T4, FXR (Homo sapiens, UniProt Q96RI1); assay: Gal4-FXR / UAS luciferase cotransfection assay; assay type: cell-based; settings: Gal4 chimeric cotransfection
T4 sequence (Q96RI1 262-486 limits assumed): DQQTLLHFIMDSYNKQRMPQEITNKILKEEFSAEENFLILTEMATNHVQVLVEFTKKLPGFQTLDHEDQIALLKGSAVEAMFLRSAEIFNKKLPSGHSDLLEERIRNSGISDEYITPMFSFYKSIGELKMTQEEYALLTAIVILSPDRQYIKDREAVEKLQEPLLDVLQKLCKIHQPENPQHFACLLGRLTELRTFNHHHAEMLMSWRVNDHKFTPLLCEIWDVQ

EL4 cells = assay: Il17a gene expression in EL4 cells by quantitative real-time PCR; assay type: cell-based, murine; settings: 10 μM, 24 hours
Method: […]. Cotransfection assays were performed as previously described in HEK293 cells (Gal4 cotransfection assay or IL-17 luciferase reporter)[8]. HEK293 and the mouse lymphoma EL4 (ATCC) cells were maintained in DMEM supplemented with 10% FBS plus antibiotics (penicillin and streptomycin; Invitrogen).
as §1

RORβ = biological target: T5, RORβ (Homo sapiens, UniProt Q92753); assay: Binding of radiolabeled T1317 to RORβ; settings: radiolabeled compound
T5 sequence (Q92753 1-470): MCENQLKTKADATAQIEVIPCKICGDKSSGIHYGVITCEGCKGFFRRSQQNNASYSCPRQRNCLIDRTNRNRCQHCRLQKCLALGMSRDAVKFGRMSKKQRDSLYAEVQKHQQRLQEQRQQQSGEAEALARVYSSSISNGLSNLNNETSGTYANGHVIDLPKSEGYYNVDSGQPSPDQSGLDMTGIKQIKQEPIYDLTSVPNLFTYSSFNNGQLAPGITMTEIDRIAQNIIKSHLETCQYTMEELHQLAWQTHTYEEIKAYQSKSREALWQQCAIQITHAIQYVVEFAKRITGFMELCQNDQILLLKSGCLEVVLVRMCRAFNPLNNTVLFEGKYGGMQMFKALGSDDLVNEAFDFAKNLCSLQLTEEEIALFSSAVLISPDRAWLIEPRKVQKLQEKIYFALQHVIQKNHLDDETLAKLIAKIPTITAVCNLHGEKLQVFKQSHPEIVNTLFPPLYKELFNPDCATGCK

[4] = T regulatory polarizing conditions, 3 days

`CC(=O)N1CCN(Cc2ccc(-c3ccc(C(O)(C(F)(F)F)C(F)(F)F)cc3)cc2)CC1` [SR1555] was tested, and the “IL-17 promoter driven activity by RORα” value (RORα [1]) was “not RORα”, the “expression of Foxp3+ T cells” value (T regulatory cells; 5 days, FACS) was “almost two-fold increase” and the “gene expression of Foxp3” value (T regulatory cells; [4]) was “effectively increased the gene expression of Foxp3”. For the same compound, the “gene expression of Rorγt” value (T regulatory cells; [4]) was “suppressing the gene expression of Rorγt”, the “effect on transcriptional activity of RORα” value (RORα [2]) was “devoid of LXR, FXR, and RORα activity” and the “displacement of [3H]T0901317 from RORα” value (RORα [3]) was “not RORα”. For the same compound, the “effect on LXR activity” value (LXR) was “devoid of LXR, FXR, and RORα activity”, the “effect on transcriptional activity of FXR” value (FXR) was “devoid of LXR, FXR, and RORα activity” and the “inhibition of Il17a gene expression” value (EL4 cells) was “greater than 70%”.
For `O=S(=O)(c1ccccc1)N(CC(F)(F)F)c1ccc(C(O)(C(F)(F)F)C(F)(F)F)cc1` [Compound T1317], the “binding to RORβ” value (RORβ) was “does in fact bind to RORβ”.

From patent publication US9586928B2 (The Scripps Research Institute, priority 2011, dated 2017)
